Measured values reported in patent US20240207421A1, “NERVE TARGETING PEPTIDES AND METHODS OF USE” (ALUME BIOSCIENCES, INC., priority 2020, published 2024).

What follows are substances tested on Laminin 421/521 (assay: Phage display library screening (Example 2), NEB laminin-binding peptides). Conditions: Laminin 421/521, not 211 and 411; combined unique sequence count, Python/R script analysis.
Set-up: species or system human
Method: Phage display library screens were used to identify peptides that bind to target proteins (including specific laminin trimers) that are expressed in human nerves, as described in Table 3. These screens were also carried out to identify peptides that could bind selectively to nerves versus muscle. Such peptides could therefore be useful for systemic in-vivo labeling of nerves during fluorescence assisted surgery. Specifically, m 13 phage libraries expressing 7 or 12 random amino acid peptides, or a cyclic peptide CX7C, on the N-terminus of the minor coat protein pIII (New England Biolabs; NEB) were processed through multiple rounds of selection for binding to target proteins expressed in nerves, or to excised human nerves, nerve extracts, or muscle, as described further below.
For screening against the specified target proteins in Table 1, including LN211, LN411, LN421, and LN521, the phage library was processed by up to 4 binding and wash cycles. For selection, phage libraries were incubated for up to 24 hours at 4° C. in 96 well plates that had been coated with one of the target proteins. Plates were then washed with PBS and phage were eluted using 0.2M glycine pH 2.0. Phage supernatants where then neutralized with Tris pH 9.0 prior to plating on TGI bacteria and LB agar plates. Colonies were counted to determine titer followed by DNA preparation of pools of phage and NextGen sequencing. After rounds of selection, phage were pooled and amplified for iterative selection. Phage that were bound at each round were sequenced. NextGen sequencing of pools after 2, 3 and 4 rounds of selection was used to isolate candidate sequences that were analyzed further to identify those that specifically bound each unique target protein.
For all NEB sequence datasets, a python script was used to translate, trim, and filter the peptide sequences (see details above). A python script was used to group peptides from different assays according to laminin complex binding (laminin complex 211, 411, 421, or 521) and combine the unique sequence counts for each peptide. An R script was written to merge the peptide sequences from different data files and determine peptides that specifically bind one laminin complex and not the others, or that bind both laminin 421 and 521 but not 211 and 411.

Substance | Count
CSRAGLSAC (Laminin 421/521-binding peptide) | 30
FNSDSRSTHQED (Laminin 421/521-binding peptide) | 29
CKSPIKGTC (Laminin 421/521-binding peptide) | 27
GDLWNVP (Laminin 421/521-binding peptide) | 51
CTKSPSNSC (Laminin 421/521-binding peptide) | 58
QGWFRHS (Laminin 421/521-binding peptide) | 121
CVLKCEDQKYRG (Laminin 421/521-binding peptide) | 27
KISMNRLHANFT (Laminin 421/521-binding peptide) | 110
LDRNADSVRAVL (Laminin 421/521-binding peptide) | 46
SFRNLEKLSLWS (Laminin 421/521-binding peptide) | 50
KPILWNRSLNAL (Laminin 421/521-binding peptide) | 52
DDLLTAPRLGVW (Laminin 421/521-binding peptide) | 54
GYDLSRLWGMAS (Laminin 421/521-binding peptide) | 39
GSGFRNEEHSAH (Laminin 421/521-binding peptide) | 51
GGWQSLWDKPEH (Laminin 421/521-binding peptide) | 31
GPMLKNLSDAVT (Laminin 421/521-binding peptide) | 31
GDLLLKR (Laminin 421/521-binding peptide) | 47
GGGYHIFGPLVT (Laminin 421/521-binding peptide) | 43
ETYKVTRVISPW (Laminin 421/521-binding peptide) | 50
EAVSTQI (Laminin 421/521-binding peptide) | 27
GINLRALDLHAN (Laminin 421/521-binding peptide) | 27
GEPLTRFPNSDS (Laminin 421/521-binding peptide) | 52
CLKDTHLNC (Laminin 421/521-binding peptide) | 40
CTGRISKHC (Laminin 421/521-binding peptide) | 43

Substance | Count
HQSVTGVRSHFH (Laminin 421/521-binding peptide) | 27
GHRTLVTSERYL (Laminin 421/521-binding peptide) | 38
LGYGQGTPHRSN (Laminin 421/521-binding peptide) | 30
CNHLTQKLC (Laminin 421/521-binding peptide) | 45
SHDVANGTSVRT (Laminin 421/521-binding peptide) | 29
EDRMMTYRYTST (Laminin 421/521-binding peptide) | 29
NDTGRHASGISK (Laminin 421/521-binding peptide) | 32
HQSLAGVPWSRH (Laminin 421/521-binding peptide) | 53
QTRWDDGSYQIS (Laminin 421/521-binding peptide) | 49
GDAQILM (Laminin 421/521-binding peptide) | 38
TALSHRHEAMRW (Laminin 421/521-binding peptide) | 28
KALGYSLVGGEW (Laminin 421/521-binding peptide) | 134
CTSSSHQTC (Laminin 421/521-binding peptide) | 28
GLLDWGSLQGGN (Laminin 421/521-binding peptide) | 30
SNPKHVSSLGQM (Laminin 421/521-binding peptide) | 40
GAMMNSNNLVAR (Laminin 421/521-binding peptide) | 43
SVLSTGTANQRH (Laminin 421/521-binding peptide) | 28
AVRPLGLPDNHR (Laminin 421/521-binding peptide) | 29
CSVWNSGNC (Laminin 421/521-binding peptide) | 43
EYVKFSHSPRTY (Laminin 421/521-binding peptide) | 31
HASNQRV (Laminin 421/521-binding peptide) | 93
AQRMNQA (Laminin 421/521-binding peptide) | 38
SVESNSKLTMPR (Laminin 421/521-binding peptide) | 29
HPAWADFFTMSS (Laminin 421/521-binding peptide) | 29

Substance | Count
NWTHLGVARLQP (Laminin 421/521-binding peptide) | 36
IDQSGLQKSGMK (Laminin 421/521-binding peptide) | 29
ALKIGPETTIYM (Laminin 421/521-binding peptide) | 35
CLQKNHKFC (Laminin 421/521-binding peptide) | 27
GYRSFIHENWSI (Laminin 421/521-binding peptide) | 68
YHLGPNQKMRTS (Laminin 421/521-binding peptide) | 48
EVERILTPHVNN (Laminin 421/521-binding peptide) | 29
KASIAYD (Laminin 421/521-binding peptide) | 30
QLQHVHL (Laminin 421/521-binding peptide) | 28
CIGGPHRNC (Laminin 421/521-binding peptide) | 29
AQNLRVHAWASL (Laminin 421/521-binding peptide) | 28
CLHNGQRSC (Laminin 421/521-binding peptide) | 37
CTWKHRDNC (Laminin 421/521-binding peptide) | 30
HSFLGAR (Laminin 421/521-binding peptide) | 44
CFQPKMNSC (Laminin 421/521-binding peptide) | 42
TFAAAQAELIMV (Laminin 421/521-binding peptide) | 38
TTLWLDRDEALK (Laminin 421/521-binding peptide) | 27
QTFHEYLNPARG (Laminin 421/521-binding peptide) | 37
CMNKIQRDC (Laminin 421/521-binding peptide) | 131
QPTPSQIKFTRT (Laminin 421/521-binding peptide) | 28
SLLSVVNTSSKS (Laminin 421/521-binding peptide) | 31
GPLLFRG (Laminin 421/521-binding peptide) | 30
VPSYILR (Laminin 421/521-binding peptide) | 30
VIADQSKSAVAV (Laminin 421/521-binding peptide) | 27

Substance | Count
QALRTNYSPLNS (Laminin 421/521-binding peptide) | 32
DWTQVRVTNWFL (Laminin 421/521-binding peptide) | 35
CTSKLARHC (Laminin 421/521-binding peptide) | 45
SVQTPMWRSLVG (Laminin 421/521-binding peptide) | 28
GSLDMGNNKQPV (Laminin 421/521-binding peptide) | 62
SLAVANTRFMIR (Laminin 421/521-binding peptide) | 49
QGWKDRLPIWRY (Laminin 421/521-binding peptide) | 29
CQTSGHHQC (Laminin 421/521-binding peptide) | 31
GWTSDLSRNVRG (Laminin 421/521-binding peptide) | 28
IDLSLRS (Laminin 421/521-binding peptide) | 29
LQSNAADHHQGM (Laminin 421/521-binding peptide) | 75
GKPDHRLVSLWR (Laminin 421/521-binding peptide) | 309
LPMLRHS (Laminin 421/521-binding peptide) | 32
DGQVSDHSYVQW (Laminin 421/521-binding peptide) | 101
AKTQAPSNWSGV (Laminin 421/521-binding peptide) | 43
IPVGERK (Laminin 421/521-binding peptide) | 124
CPMHQSKTC (Laminin 421/521-binding peptide) | 28
ETGGLAYGSGQK (Laminin 421/521-binding peptide) | 28
WSPANGWRHQTI (Laminin 421/521-binding peptide) | 36
TKGIAPK (Laminin 421/521-binding peptide) | 28
CHRTYNSTC (Laminin 421/521-binding peptide) | 46
GHPWTEIDFMSS (Laminin 421/521-binding peptide) | 50
RALDRYLPWSPH (Laminin 421/521-binding peptide) | 28
